Type in all cases: cell-based
One experiment relates to Phaeosphaeria nodorum. Kind of experiment: Plate medium fungicidal assay, wheat Septoria nodorum blotch P.n (Experimental Example 5). The procedure: (§1) In this Experimental Example, the fungicidal effects of the inventive compounds on various phytopathogenic fungi for plants and hazardous microorganism for industrial materials were examined by the methods described below. Each inventive compound was dissolved in 2 ml of dimethyl sulfoxide. 0.6 ml of this solution was added to 60 nil of a PDA medium (potato dextrose agar medium) at about 60 degrees C., which was mixed thoroughly in a 100-ml conical flask, and poured into a dish, where it was solidified, thereby obtaining a plate medium containing the inventive compound at 50 mg/L and 5 mg/L. On the other hand, a subject microorganism previously cultured on a plate medium was cut out using a cork borer whose diameter was 4 mm, and inoculated to the test compound-containing plate medium described above. […] The growth degree of the microorganism on the test compound-containing plate medium thus observed was compared with the growth degree of the microorganism in the untreated group, and % mycelial growth inhibition was calculated by the following equation. R=100(dc−dt)/dc wherein R=% mycelial extension inhibition, dc=flora diameter in untreated plate, dt=flora diameter in treated plate. The results obtained as described above were evaluated as one of the 5 grades according to the following criteria. […] Wheat Septoria nodorum blotch (Phaeosphaeria nodorum) P.n

A further experiment deals with Rhynchosporium secalis. The experiment can be described thus: Plate medium fungicidal assay, barley leaf blotch R.sec (Experimental Example 5). Here is the method:
as §1, with “Barley leaf” for “Wheat Septoria nodorum”, “(Rhynchosporium secalis) R.sec” for “(Phaeosphaeria nodorum) P.n”

The next experiment has as its system Fusarium oxysporum. Kind of experiment: Plate medium fungicidal assay, cucumber fusarium wilt F.c (Experimental Example 5). Here is the method:
as §1, with “Cucumber fusarium wilt (Fusarium oxysporum) F.c” for “Wheat Septoria nodorum blotch (Phaeosphaeria nodorum) P.n”

For experiment [1], the system named is Pseudocercoporella herpotrichoides. The experiment can be described thus: Plate medium fungicidal assay, wheat eye spot P.h (Experimental Example 5). Here is the method:
as §1, with “eye spot (Pseudocercoporella herpotrichoides) P.h” for “Septoria nodorum blotch (Phaeosphaeria nodorum) P.n”

For a further experiment, the system named is Botritis cinerea. The experiment can be described thus: Plate medium fungicidal assay, gray mold B.c (Experimental Example 5). Here is the method:
as §1, with “Gray mold (Botritis cinerea) B.c” for “Wheat Septoria nodorum blotch (Phaeosphaeria nodorum) P.n”

Setting [2] is: plate medium containing compound at 5 mg/L.
Where [3] appears, read: plate medium containing compound at 50 mg/L.

By inhibition is commonly meant the drop in the measured response relative to a control, in per cent.

Bounds are passed on as bounds.

For `C[C@@]1(CCl)CC[C@@H](Cc2ccc(Cl)cc2)[C@]1(O)Cn1cncn1` (racemic) [Compound I-101], the “Growth inhibition grade, P.n” value with Phaeosphaeria nodorum (setting [2]) and with Phaeosphaeria nodorum (setting [3]) was 5 (% Mycerial growth inhibition of 80% or higher) each time. In addition, the “Growth inhibition grade, R.sec” value in the experiment with Rhynchosporium secalis (setting [2]) and in the experiment with Rhynchosporium secalis (setting [3]) was 5 (% Mycerial growth inhibition of 80% or higher) in each case. Also, the “Growth inhibition grade, F.c” value in the experiment with Fusarium oxysporum (setting [2]) and with Fusarium oxysporum (setting [3]) was 5 (% Mycerial growth inhibition of 80% or higher) in each case. Further, the “Growth inhibition grade, P.h” value in experiment [1] (setting [2]) and in experiment [1] (setting [3]) was 5 (% Mycerial growth inhibition of 80% or higher) each time. Further, the “Growth inhibition grade, B.c” value in the experiment with Botritis cinerea (setting [2]) and with Botritis cinerea (setting [3]) was 5 (% Mycerial growth inhibition of 80% or higher) each time.

As to `CC[C@]1(CCl)CC[C@@H](Cc2ccc(Cl)cc2)[C@]1(O)Cn1cncn1` (racemic) [Compound I-36, (1RS,2SR,5SR)-5-(4-chlorobenzyl)-2-chloromethyl-2-ethyl-1-(1H-1,2,4-triazol-1-ylmethyl)cyclopentanol], the inhibition at 5 µg/mL with Phaeosphaeria nodorum (Parastagonospora nodorum, plate medium containing compound at 5 mg/L, read-out: Growth inhibition grade, P.n) is greater than 80%; in the experiment with Rhynchosporium secalis (Rhynchosporium secalis, plate medium containing compound at 5 mg/L, read-out: Growth inhibition grade, R.sec), greater than 80%; with Fusarium oxysporum (Fusarium oxysporum, plate medium containing compound at 5 mg/L, read-out: Growth inhibition grade, F.c), greater than 80%; in experiment [1] (plate medium containing compound at 5 mg/L, read-out: Growth inhibition grade, P.h) it was greater than 80%; with Botritis cinerea (plate medium containing compound at 5 mg/L, read-out: Growth inhibition grade, B.c) it was 60 to 80%. The inhibition at 50 µg/mL with Phaeosphaeria nodorum (Parastagonospora nodorum, plate medium containing compound at 50 mg/L, read-out: Growth inhibition grade, P.n) is greater than 80%; with Rhynchosporium secalis (Rhynchosporium secalis, plate medium containing compound at 50 mg/L, read-out: Growth inhibition grade, R.sec), greater than 80%; in the experiment with Fusarium oxysporum (Fusarium oxysporum, plate medium containing compound at 50 mg/L, read-out: Growth inhibition grade, F.c) it was greater than 80%; in experiment [1] (plate medium containing compound at 50 mg/L, read-out: Growth inhibition grade, P.h), greater than 80%; in the experiment on Botritis cinerea (plate medium containing compound at 50 mg/L, read-out: Growth inhibition grade, B.c), greater than 80%.

For the compound `C[C@]1(CCl)CC[C@H](Cc2cccc(Cl)c2)[C@]1(O)Cn1cncn1` (relative stereo) [Compound I-374], the “Growth inhibition grade, P.n” value is 5 (% Mycerial growth inhibition of 80% or higher) in the experiment on Phaeosphaeria nodorum (plate medium, 5 mg/L) and 5 (% Mycerial growth inhibition of 80% or higher) with Phaeosphaeria nodorum (plate medium, 50 mg/L). The “Growth inhibition grade, R.sec” value is reported as 5 (% Mycerial growth inhibition of 80% or higher) in the experiment with Rhynchosporium secalis (plate medium, 5 mg/L) and 5 (% Mycerial growth inhibition of 80% or higher) with Rhynchosporium secalis (plate medium, 50 mg/L). For the same compound, the “Growth inhibition grade, F.c” value in the experiment with Fusarium oxysporum (plate medium, 5 mg/L) is recorded as 5 (% Mycerial growth inhibition of 80% or higher); in the experiment with Fusarium oxysporum (plate medium, 50 mg/L), 5 (% Mycerial growth inhibition of 80% or higher). Further, the “Growth inhibition grade, P.h” value was 5 (% Mycerial growth inhibition of 80% or higher) in experiment [1] (plate medium, 5 mg/L) and 5 (% Mycerial growth inhibition of 80% or higher) in experiment [1] (plate medium, 50 mg/L). Moreover, the “Growth inhibition grade, B.c” value in the experiment on Botritis cinerea (plate medium, 5 mg/L) is recorded as 5 (% Mycerial growth inhibition of 80% or higher); in the experiment with Botritis cinerea (plate medium, 50 mg/L), 5 (% Mycerial growth inhibition of 80% or higher).

As to `O[C@]1(Cn2cncn2)[C@H](Cc2ccc(Cl)cc2)CCC1(CCl)CCl` (relative stereo) [Compound I-203, cis-5-(4-chlorobenzyl)-2,2-bis(chloromethyl)-1-(1H-1,2,4-triazol-1-yl)methylcyclopentanol], the “Growth inhibition grade, P.n” value in the experiment on Phaeosphaeria nodorum (plate medium, 5 mg/L) is 5 (% Mycerial growth inhibition of 80% or higher); in the experiment with Phaeosphaeria nodorum (plate medium, 50 mg/L) it was 5 (% Mycerial growth inhibition of 80% or higher). In addition, the “Growth inhibition grade, R.sec” value is recorded as 5 (% Mycerial growth inhibition of 80% or higher) in the experiment on Rhynchosporium secalis (plate medium, 5 mg/L) and 5 (% Mycerial growth inhibition of 80% or higher) in the experiment on Rhynchosporium secalis (plate medium, 50 mg/L). In addition, the “Growth inhibition grade, F.c” value is reported as 5 (% Mycerial growth inhibition of 80% or higher) in the experiment with Fusarium oxysporum (plate medium, 5 mg/L) and 5 (% Mycerial growth inhibition of 80% or higher) in the experiment on Fusarium oxysporum (plate medium, 50 mg/L). Further, the “Growth inhibition grade, P.h” value is 5 (% Mycerial growth inhibition of 80% or higher) in experiment [1] (plate medium, 5 mg/L) and 5 (% Mycerial growth inhibition of 80% or higher) in experiment [1] (plate medium, 50 mg/L). Further, the “Growth inhibition grade, B.c” value in the experiment on Botritis cinerea (plate medium, 5 mg/L) is 5 (% Mycerial growth inhibition of 80% or higher); with Botritis cinerea (plate medium, 50 mg/L), 5 (% Mycerial growth inhibition of 80% or higher).

`CC1(C)CCC(Cc2ccc(Cl)cc2)C1(O)Cn1ncnc1S` (racemic) [compound (2)]: the “Growth inhibition grade, P.n” value is listed as 3 (% Mycelial growth inhibition of less than 60 to 40% or higher) with Phaeosphaeria nodorum (plate medium, 5 mg/L) and 4 (% Mycerial growth inhibition of less than 80 to 60% or higher) with Phaeosphaeria nodorum (plate medium, 50 mg/L). In addition, the “Growth inhibition grade, R.sec” value in the experiment with Rhynchosporium secalis (plate medium, 5 mg/L) is recorded as 5 (% Mycerial growth inhibition of 80% or higher); in the experiment on Rhynchosporium secalis (plate medium, 50 mg/L), 5 (% Mycerial growth inhibition of 80% or higher). Also, the “Growth inhibition grade, F.c” value in the experiment with Fusarium oxysporum (plate medium, 5 mg/L) was 3 (% Mycelial growth inhibition of less than 60 to 40% or higher); in the experiment on Fusarium oxysporum (plate medium, 50 mg/L), 4 (% Mycerial growth inhibition of less than 80 to 60% or higher). Further, the “Growth inhibition grade, P.h” value is 2 (% Mycerial growth inhibition of less than 40 to 20% or higher) in experiment [1] (plate medium, 5 mg/L) and 4 (% Mycerial growth inhibition of less than 80 to 60% or higher) in experiment [1] (plate medium, 50 mg/L). The “Growth inhibition grade, B.c” value in the experiment on Botritis cinerea (plate medium, 5 mg/L) is 2 (% Mycerial growth inhibition of less than 40 to 20% or higher); in the experiment with Botritis cinerea (plate medium, 50 mg/L), 5 (% Mycerial growth inhibition of 80% or higher).

The record behind these values is patent publication US9145351B2, “Azole derivatives, methods for producing the same, intermediate thereof, agro-horticultural agents” (KUREHA CORPORATION, priority 2009, dated 2015).
